Read-outs that look alike come from different tables or passages of the source.
What was measured:
[1] = test system: Human breast squamous carcinoma cells HCC1806; test: Cell function assay (In-Cell Western, PAR/pADPr after MMS); assay type: cell-based; details: read-out: IC50 (nM) in cell function assay
In short: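 HCC1806 cells adhered 24 h at 37 °C, 5% CO2, then were pretreated 1 h with compound (30000 nM down to 1 nM, plus 0 nM) or DMSO. MMS was then added at 0.5 mM final for 1 h before In-Cell Western detection of PAR/pADPr.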

PXR = biological target: T1, PXR (Homo sapiens, UniProt O75469); test: PXR assay (DPX2 luciferase reporter cells); assay type: cell-based; details: 24 h; for PXR Activation @30 uM (% Ctrl): positive control rifampicin
T1 construct: host or cells: DPX2 (HepG2)
T1 sequence (O75469 1-434): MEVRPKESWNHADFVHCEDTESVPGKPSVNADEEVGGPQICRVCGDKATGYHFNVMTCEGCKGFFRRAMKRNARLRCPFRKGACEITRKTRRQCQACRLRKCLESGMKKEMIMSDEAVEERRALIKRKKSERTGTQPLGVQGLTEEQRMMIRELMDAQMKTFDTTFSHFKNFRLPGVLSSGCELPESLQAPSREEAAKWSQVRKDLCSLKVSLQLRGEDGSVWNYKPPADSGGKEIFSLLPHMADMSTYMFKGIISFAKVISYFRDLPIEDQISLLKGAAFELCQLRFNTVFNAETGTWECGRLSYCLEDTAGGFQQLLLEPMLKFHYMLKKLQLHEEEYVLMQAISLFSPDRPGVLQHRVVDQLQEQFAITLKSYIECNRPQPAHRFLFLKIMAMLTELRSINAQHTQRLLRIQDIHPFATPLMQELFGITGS
In short: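 DPX2 cells (HepG2 stably carrying human PXR plus luciferase reporter) dosed 24 h with compound at 10, 1, 0.1 μM or 30–0.1 μM for EC50, 0.1% DMSO. Viability by CellTiter-Fluor (ex 400/em 505 nm), then ONE-Glo luciferase luminescence for PXR activation.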

HCC1806 = test: Cell viability assay (CellTiter-Glo); assay type: cell-based, Human; details: HCC1806, 7 days, CellTiter-Glo, read-out: IC50 (nM) in cell viability assay
[2] = HCC1806, In-Cell Western, MMS treatment
[3] = HCC1806, compound 1 h then 0.5 mM MMS 1 h, PAR/pADPr antibody, In-Cell Western

| Compound | IC50 [1, 2] | IC50 [1, 3] | PXR Activation @30 uM (Fold) (PXR) | PXR Activation @30 uM (% Ctrl) (PXR) | IC50 (HCC1806) | IC50 (HCC1806; Homo sapiens, HCC1806, 168 h) |
| --- | --- | --- | --- | --- | --- | --- |
| CC(C)C(=O)N1CCN(c2cc(S(=O)(=O)NC3(C#N)CC3)cn3c(-c4nnc(C(F)F)s4)ncc23)CC1 [Example 32, N-(1-cyanocyclopropyl)-3-(5-(difluoromethyl)-1,3,4-thiadiazol-2-yl)-8-(4-isobutyrylpiperazin-1-yl)imidazo[1,5-a]pyridine-6-sulfonamide] | 10.8 nM | < 100 nM | 2.7 Fold | 19 % Ctrl |  |  |
| CC(C)C(=O)N1CCN(c2cc(S(=O)(=O)NC3(C#N)CC3)cn3c(-c4nnc(C(F)(F)F)s4)ncc23)CC1 [Example 167, N-(1-cyanocyclopropyl)-8-(4-isobutyrylpiperazin-1-yl)-3-(5-(trifluoromethyl)-1,3,4-thiadiazol-2-yl)imidazo[1,5-a]pyridine-6-sulfonamide] | 6.34 nM | < 100 nM | 5.0 Fold | 34 % Ctrl | 290 nM | < 500 nM |
